In patent US9049864B2, “Pyridazinone herbicidal compounds” (Syngenta Limited, priority 2012, dated 2015):

Columns and labels:
Assay in all cases: Post-emergence herbicidal glasshouse test, percentage damage to the plant
Format in all cases: in vivo
Settings in all cases: post-emergence, 1000 g/ha, evaluated after 13 days
[1] = system: Echinochloa crus-galli (ECHCG)
Procedure: (§1) Seeds of a variety of test species are sown in standard soil in pots:—Solanum nigrum (SOLNI), Amaranthus retoflexus (AMARE), Setaria faberi (SETFA), Alopecurus myosuroides (ALOMY), Echinochloa crus-galli (ECHCG), Ipomoea hederacea (IPOHE). After 8 days cultivation (post-emergence) under controlled conditions in a glasshouse (at 24/16° C., day/night; 14 hours light; 65% humidity), the plants are sprayed with an aqueous spray solution derived from the formulation of the technical active ingredient in acetone/water (50:50) solution containing 0.5% Tween 20 (polyoxyethelyene sorbitan monolaurate, CAS RN 9005-64-5). Compounds are applied at 1000 g/ha. The test plants are then grown in a glasshouse under controlled conditions in a glasshouse (at 24/16° C., day/night; 14 hours light; 65% humidity) and watered twice daily. After 13 days, the test is evaluated for the percentage damage caused to the plant. The biological activities are shown in the following table on a five point scale (5=80-100%; 4=60-79%; 3=40-59%; 2=20-39%; 1=0-19%). A comparative experiment is conducted to compare the biological efficacy of a compound of the present invention with those of WO 2011/045271. The test is performed as outlined above using the following compounds. Three different application rates are employed (250 g/ha, 500 g/ha and 1000 g/ha).

[2] = system: Solanum nigrum (SOLNI)
Procedure: as §1

[3] = system: Amaranthus retoflexus (AMARE)
Procedure: as §1

[4] = system: Ipomoea hederacea (IPOHE)
Procedure: as §1

[5] = system: Setaria faberi (SETFA)
Procedure: as §1

[6] = system: Alopecurus myosuroides (ALOMY)
Procedure: as §1

| SMILES | POST Application ECHCG, percentage damage (five point scale) [1] | POST Application SOLNI, percentage damage (five point scale) [2] | POST Application AMARE, percentage damage (five point scale) [3] | POST Application IPOHE, percentage damage (five point scale) [4] | POST Application SETFA, percentage damage (five point scale) [5] | POST Application ALOMY, percentage damage (five point scale) [6] |
| --- | --- | --- | --- | --- | --- | --- |
| Cc1nn(C)c(=O)c(-n2c(Cl)c(Cl)c3ccccc32)c1OC(=O)C(C)C [Compound 3.003] | 4 (4=60-79%) | 5 (5=80-100%) | 5 (5=80-100%) | 5 (5=80-100%) | 1 (1=0-19%) | 1 (1=0-19%) |
| CN1N=C([S+](C)[O-])C(=O)C(n2c(Cl)c(Cl)c3ccccc32)C1=O (stereo not drawn) [Compound 2.005] | 1 (1=0-19%) | 5 (5=80-100%) | 2 (2=20-39%) | 5 (5=80-100%) | 1 (1=0-19%) | 1 (1=0-19%) |
| CCCOC1=NN(C)C(=O)C(n2c(Cl)c(Cl)c3ccccc32)C1=O (stereo not drawn) [Compound 2.018] | 1 (1=0-19%) | 4 (4=60-79%) | 3 (3=40-59%) | 4 (4=60-79%) | 1 (1=0-19%) | 1 (1=0-19%) |
| Cc1nn(C)c(=O)c(-n2c(Cl)c(Cl)c3ccccc32)c1OC(=O)c1ccc([N+](=O)[O-])cc1 [Compound 3.009] | 1 (1=0-19%) | 5 (5=80-100%) | 5 (5=80-100%) | 5 (5=80-100%) | 1 (1=0-19%) | 1 (1=0-19%) |
| COCCOCC1=NN(C)C(=O)C(n2c(Cl)c(Cl)c3ccccc32)C1=O (stereo not drawn) [Compound 2.015] | 1 (1=0-19%) | 4 (4=60-79%) | 2 (2=20-39%) | 5 (5=80-100%) | 1 (1=0-19%) | 1 (1=0-19%) |
| CN1N=C(OCC(F)(F)F)C(=O)C(n2c(Cl)c(Cl)c3ccccc32)C1=O (stereo not drawn) [Compound 2.024] | 1 (1=0-19%) | 2 (2=20-39%) | 2 (2=20-39%) | 1 (1=0-19%) | 1 (1=0-19%) | 1 (1=0-19%) |
| CC1=NN(C)C(=O)C(n2c(Cl)c(Cl)c3ccc(Cl)cc32)C1=O (stereo not drawn) [Compound 1.020] | 4 (4=60-79%) | 5 (5=80-100%) | 5 (5=80-100%) | 5 (5=80-100%) | 1 (1=0-19%) | 1 (1=0-19%) |
| CN1N=C(COCC2CCCCC2)C(=O)C(n2c(Cl)c(Cl)c3ccccc32)C1=O (stereo not drawn) [Compound 2.011] | 1 (1=0-19%) | 4 (4=60-79%) | 2 (2=20-39%) | 5 (5=80-100%) | 1 (1=0-19%) | 1 (1=0-19%) |
| CC1=NN(C)C(=O)C(n2cc(Br)c3ccccc32)C1=O (stereo not drawn) [Compound 1.025] | 1 (1=0-19%) | 5 (5=80-100%) | 4 (4=60-79%) | 3 (3=40-59%) | 1 (1=0-19%) | 1 (1=0-19%) |
| CN(C)C1=NN(C)C(=O)C(n2c(Cl)c(Cl)c3ccccc32)C1=O (stereo not drawn) [Compound 2.021] | 1 (1=0-19%) | 4 (4=60-79%) | 3 (3=40-59%) | 3 (3=40-59%) | 1 (1=0-19%) | 2 (2=20-39%) |
| Cc1nn(C)c(=O)c(-n2c(Cl)c(Cl)c3ccccc32)c1OC(=O)SC(C)(C)C [Compound 3.007] | 1 (1=0-19%) | 5 (5=80-100%) | 5 (5=80-100%) | 5 (5=80-100%) | 1 (1=0-19%) | 1 (1=0-19%) |
| CN1N=C(OCC(F)F)C(=O)C(n2c(Cl)c(Cl)c3ccccc32)C1=O (stereo not drawn) [Compound 2.020] | 1 (1=0-19%) | 4 (4=60-79%) | 4 (4=60-79%) | 3 (3=40-59%) | 1 (1=0-19%) | 1 (1=0-19%) |
| CC1=NN(C)C(=O)C(n2c(C)c(Cl)c3ccccc32)C1=O (stereo not drawn) [Compound 4.027] | 5 (5=80-100%) | 5 (5=80-100%) | 5 (5=80-100%) | 5 (5=80-100%) | 4 (4=60-79%) | 3 (3=40-59%) |
| COC(=O)Oc1c(C)nn(C)c(=O)c1-n1c(Cl)c(Cl)c2ccccc21 [Compound 3.004] | 4 (4=60-79%) | 5 (5=80-100%) | 5 (5=80-100%) | 5 (5=80-100%) | 2 (2=20-39%) | 2 (2=20-39%) |
| CN1N=C(Br)C(=O)C(n2c(Cl)c(Cl)c3ccccc32)C1=O (stereo not drawn) [Compound 2.028] | 1 (1=0-19%) | 5 (5=80-100%) | 5 (5=80-100%) | 5 (5=80-100%) | 1 (1=0-19%) | 1 (1=0-19%) |
| Cc1nn(C)c(=O)c(-n2c(Cl)c(Cl)c3ccccc32)c1OC(=O)N1CCOCC1 [Compound 3.002] | 1 (1=0-19%) | 5 (5=80-100%) | 2 (2=20-39%) | 5 (5=80-100%) | 1 (1=0-19%) | 1 (1=0-19%) |
| CN1N=C(S(C)(=O)=O)C(=O)C(n2c(Cl)c(Cl)c3ccccc32)C1=O (stereo not drawn) [Compound 2.004] | 1 (1=0-19%) | 2 (2=20-39%) | 2 (2=20-39%) | 2 (2=20-39%) | 1 (1=0-19%) | 1 (1=0-19%) |
